Source: ChEMBL document CHEMBL1150698, “Placidenes C-F, novel alpha-pyrone propionates from the Mediterranean sacoglossan Placida dendritica” (J Nat Prod, 2003)

Assays:
Gambusia affinis = test: Toxicity in Gambusia affinis; type: organism-based; conditions: in vivo
[1] = Stability at pH 1 to 5; type: physicochemical; conditions: buffer

In the case of `CC/C=C(C)\C=C(/C)c1oc(OC)c(C)c(=O)c1C` [PLACIDENE A], the Activity (Gambusia affinis) is reported as “Non-toxic” and the Stability [1] is reported as “Stable”.
For `CCC(C)/C=C/c1oc(=O)cc(OC)c1C` (configuration not stated) [PLACIDENE C], the Activity (Gambusia affinis) was “Non-toxic” and the Stability [1] was “Stable”.
For `CCCC(C)/C=C/c1oc(=O)cc(OC)c1C` (configuration not stated) [PLACIDENE D], the Activity (Gambusia affinis) was “Non-toxic”.
For `CCCC(C)c1oc(=O)cc(OC)c1C` (configuration not stated) [PLACIDENE E], the Activity (Gambusia affinis) was “Non-toxic”.
In the case of `C/C=C(C)\C=C(/C)c1oc(=O)c(C)c(OC)c1C` [PLACIDENE F], the Activity (Gambusia affinis) is reported as “Non-toxic”.
